# In BindingDB's records for doi:10.1016/0960-894X(95)00583-F (1996):
# Assay: Compound was evaluated for binding affinity against [3H]- Cl-DPDPE labeled Opioid receptor delta 1 in guinea-pig brain homogenate.
row,Structure (SMILES),Ki
1,"O=C(/C=C/c1ccc([N+](=O)[O-])cc1)N[C@@H]1CC[C@@]2(O)[C@H]3Cc4ccc(O)c5c4C2(CCN3CC2CC2)[C@H]1O5 [1N-[4-cyclopropylmethyl-10,17-dihydroxy-(5R,13R,14R,17S)-12-oxa-4-azapentacyclo[9.6.1.01,13.05,17.07,18]octadeca-7(18),8,10-trien-14-yl]-3-(4-nitrophenyl)-(E)-2-propenamide]",5.1 nM
2,"O=C(/C=C/c1ccccc1)N[C@@H]1CC[C@@]2(O)[C@H]3Cc4ccc(O)c5c4[C@@]2(CCN3CC2CC2)[C@H]1O5 [17-Cyclopropylmethyl-3,14beta-dihydroxy-4,5alpha-epoxy-6beta-(cinnamoylamino)morphinan]",3.1 nM
3,"O=C(/C=C/c1ccc(Cl)cc1)N[C@@H]1CC[C@@]2(O)[C@H]3Cc4ccc(O)c5c4C2(CCN3CC2CC2)[C@H]1O5 [1N-[4-cyclopropylmethyl-10,17-dihydroxy-(5R,13R,14R,17S)-12-oxa-4-azapentacyclo[9.6.1.01,13.05,17.07,18]octadeca-7(18),8,10-trien-14-yl]-3-(4-chlorophenyl)-(E)-2-propenamide]",5 nM
4,COC(=O)/C=C/C(=O)N[C@@H]1CC[C@@]2(O)[C@H]3Cc4ccc(O)c5c4[C@@]2(CCN3CC2CC2)[C@H]1O5 [Beta-Funeltrexamine],22 nM
5,"Cc1ccc(/C=C/C(=O)N[C@@H]2CC[C@@]3(O)[C@H]4Cc5ccc(O)c6c5C3(CCN4CC3CC3)[C@H]2O6)cc1 [1N-[4-cyclopropylmethyl-10,17-dihydroxy-(5R,13R,14R,17S)-12-oxa-4-azapentacyclo[9.6.1.01,13.05,17.07,18]octadeca-7(18),8,10-trien-14-yl]-3-(4-methylphenyl)-(E)-2-propenamide]",9.6 nM
